Experimental data from the PolyMetriX glass transition set.

glass transition temperature	SMILES
266.00 °C	*Oc1ccc(Oc2ccc(C(=O)c3c(C(=O)c4ccc(*)cc4)c(-c4ccc(F)cc4)c(-c4ccc(F)cc4)c(-c4ccc(F)cc4)c3-c3ccc(F)cc3)cc2)cc1 (repeat unit)
260.50 °C	*C(=O)c1cc(C(=O)c2ccc3c(c2)C(=O)N(c2ccc(C(c4ccc(N5C(=O)c6ccc(*)cc6C5=O)cc4)(C(F)(F)F)C(F)(F)F)cc2)C3=O)cc(-c2ccccc2)c1 (repeat unit)
220.00 °C	*c1ccc(-c2ccc(N(c3ccccc3)c3ccc(-c4ccc(N(c5ccccc5)c5ccc(-c6ccc(-n7c(=O)c8cc9c(=O)n(*)c(=O)c9cc8c7=O)cc6)cc5)cc4)cc3)cc2)cc1 (repeat unit)
244.00 °C	*c1ccc(Oc2ccc(Oc3ccc(NC(=O)c4ccc(Oc5cccc6c5C(=O)N(*)C6=O)cc4)cc3)cc2)cc1 (repeat unit)
195.00 °C	*c1ccc2oc(-c3ccc4oc5ccc(-c6nc7cc(C(*)(C(F)(F)F)C(F)(F)F)ccc7o6)cc5c4c3)nc2c1 (repeat unit)
176.50 °C	*Oc1ccc(Sc2ccc(Oc3ccc(-c4ccc(-c5ccc(-c6ccc(*)c(C(F)(F)F)c6)cc5)cc4)cc3C(F)(F)F)cc2)cc1 (repeat unit)
167.00 °C	*Oc1ccc(S(=O)(=O)c2ccc(Oc3ccc(C(C)(C)c4ccc(*)c(C(O)(C(F)(F)F)C(F)(F)F)c4)cc3C(O)(C(F)(F)F)C(F)(F)F)cc2)cc1 (repeat unit)
177.00 °C	*Oc1ccc(NC(=O)c2ccc(Oc3ccc(C(C)(C)c4ccc(C(C)(C)c5ccc(Oc6ccc(C(=O)Nc7ccc(Oc8ccc(-c9ccc(*)cc9)cc8)cc7)cc6)cc5)cc4)cc3)cc2)cc1 (repeat unit)
314.00 °C	*c1ccc(Oc2ccc(Oc3ccc(-n4c(=O)c5cc6c(=O)n(*)c(=O)c6cc5c4=O)cc3)cc2C(C)(C)C)cc1 (repeat unit)
225.00 °C	*c1ccc(-c2ccc(N(*)c3ccc(C(F)(F)F)cc3)cc2)cc1 (repeat unit)
107.00 °C	*CC(CO)(CCl)COc1ccc(C(c2ccc(O*)cc2)(C(F)(F)F)C(F)(F)F)cc1 (repeat unit)
186.00 °C	*Oc1ccc(C(C)(C)c2ccc(Oc3ccc(C(=O)c4ccc(-c5ccc(C(=O)c6ccc(*)cc6)cc5)cc4)cc3)cc2)cc1 (repeat unit)
208.00 °C	*c1ccc(Oc2ccc(-c3ccc(Oc4ccc(N5C(=O)c6ccc(Oc7ccccc7Oc7ccc8c(c7)C(=O)N(*)C8=O)cc6C5=O)cc4C(F)(F)F)cc3)cc2)c(C(F)(F)F)c1 (repeat unit)
259.00 °C	*C(=O)c1ccc2c(c1)C(=O)N(c1cccc(C(=O)c3ccccc3N3C(=O)c4ccc(*)cc4C3=O)c1)C2=O (repeat unit)
228.00 °C	*Oc1ccc(C2(c3ccc(OC4(F)C(*)(F)C(F)(F)C4(F)F)cc3)c3ccccc3-c3ccccc32)cc1 (repeat unit)
315.00 °C	*C(=O)c1ccc2c(c1)C(=O)N(c1cc(C(c3ccc(O)c(N4C(=O)c5ccc(*)cc5C4=O)c3)(C(F)(F)F)C(F)(F)F)ccc1O)C2=O (repeat unit)
40.00 °C	*CCCCCOC(=O)c1ccc(-c2ccc(-c3ccc(C(=O)O*)cc3)cc2)cc1 (repeat unit)
206.00 °C	*Oc1cc(C(C)(C)C)c(Oc2ccc(C(=O)c3ccc(*)cc3)cc2)cc1C(C)(C)C (repeat unit)

More lines, now with the values behind:

SMILES	glass transition temperature
*C(=O)c1ccc2c(c1)C(=O)N(c1ccc(C(=O)Nc3ccc(Oc4ccc(NC(=O)c5ccc(NC(=O)Nc6ccc(Cc7ccc(NC(=O)Nc8ccc(C(=O)Nc9ccc(Oc%10ccc(NC(=O)c%11ccc(N%12C(=O)c%13ccc(*)cc%13C%12=O)cc%11)cc%10)cc9)cc8)cc7)cc6)cc5)cc4)cc3)cc1)C2=O (repeat unit)	229.00 °C
*Oc1ccc(CC(NC(=O)CCc2ccc(OC(=O)CCCCCCC(*)=O)cc2)C(=O)OC(C)C)cc1 (repeat unit)	46.00 °C
*Oc1cccc2ccc(Oc3ccc(NC(=O)c4ccc(Oc5ccc(C(C)(C)c6cccc(C(C)(C)c7ccc(Oc8ccc(C(=O)Nc9ccc(*)cc9)cc8)cc7)c6)cc5)cc4)cc3)cc12 (repeat unit)	139.00 °C
*CCCCCCN1C(=O)C(=O)N(c2ccc(CCc3ccccc3N3C(=O)C(=O)N(*)C3=O)cc2)C1=O (repeat unit)	137.00 °C
*CCOP(=O)(/N=N/c1ccc(-c2ccc(/N=N/P(=O)(O*)OCC)cc2)cc1)OCC (repeat unit)	43.00 °C
*C(=O)Nc1ccc(Oc2ccccc2-c2ccccc2Oc2ccc(NC(=O)c3ccc4c(c3)C(=O)N(c3ccc(Cc5ccc(N6C(=O)c7ccc(*)cc7C6=O)cc5)cc3)C4=O)cc2)cc1 (repeat unit)	240.00 °C
*Oc1ccc(C(c2ccc(Oc3ccc(C(=O)c4ccc(P(=O)(c5ccccc5)c5ccc(C(=O)c6ccc(*)cc6)cc5)cc4)cc3)cc2)(C(F)(F)F)C(F)(F)F)cc1 (repeat unit)	207.00 °C
*CC(*)(C)C(=O)OCc1ccc2c(c1)c1ccccc1n2CCCCCCCCCCCCCC (repeat unit)	26.00 °C
*CC(CCCC)COC(=O)NC(=O)c1cccc(C(=O)NC(=O)O*)c1 (repeat unit)	64.00 °C
*Oc1c(C)cc(C2(c3cc(C)c(Oc4ccc(C(=O)c5cccc(C(=O)c6ccc(*)cc6)c5)cc4)c(C)c3)CCC3CCCCC3C2)cc1C (repeat unit)	224.00 °C
*Oc1ccc(Oc2c(F)c(F)c(-c3c(F)c(F)c(*)c(F)c3F)c(F)c2F)cc1S(=O)(=O)O (repeat unit)	120.00 °C
*CCOC(=O)Nc1ccc(Cc2ccc(NC(=O)OCCOc3ccc(C4(c5ccc(O*)cc5)c5ccccc5-c5ccccc54)cc3)cc2)cc1 (repeat unit)	152.00 °C
*c1ccc(Oc2ccc(N3C(=O)c4cccc(Oc5c(C)cc(Cc6cc(C)c(Oc7cccc8c7C(=O)N(*)C8=O)c(C)c6)cc5C)c4C3=O)cc2)cc1 (repeat unit)	270.00 °C
*Oc1ccc(OC(=O)c2ccc(C(*)=O)cc2)cc1 (repeat unit)	267.00 °C
*CC(*)(C)C(=O)OCc1ccc(F)cc1F (repeat unit)	46.00 °C
*CC(*)(CC(=O)OCC(C)C)C(=O)OCC(C)C (repeat unit)	125.00 °C
*c1cccc(N2C(=O)c3cccc(Oc4c(C)cc(-c5cc(C)c(Oc6cccc7c6C(=O)N(*)C7=O)c(C)c5)cc4C)c3C2=O)c1 (repeat unit)	311.00 °C
*CC(*)c1ccc(COCCOCCCCCCCC)cc1 (repeat unit)	-42.00 °C
*C(=O)c1ccc2c(c1)C(=O)N(c1ccc(Oc3c(C)cc(Cc4cc(C)c(Oc5ccc(N6C(=O)c7ccc(*)cc7C6=O)cc5)c(C)c4)cc3C)cc1)C2=O (repeat unit)	303.00 °C
*C(=O)Oc1ccc(OC(=O)c2ccc3c(c2)C(=O)N(c2ccc(S(=O)(=O)c4ccc(N5C(=O)c6ccc(*)cc6C5=O)cc4)cc2)C3=O)c(C(C)(C)C)c1 (repeat unit)	179.00 °C
*CC(*)(C#N)C(=O)OCCCCCCC (repeat unit)	102.00 °C

SMILES	glass transition temperature
*CC(*)(C)C(=O)OCSC (repeat unit)	60.00 °C
*CC(CCCCCCCCCC)O* (repeat unit)	-41.00 °C
*CC(*)(C)C(=O)OCc1ccc2c(c1)c1ccccc1n2CCCC (repeat unit)	87.00 °C
*Oc1ccc(CC(NC(=O)CCc2ccc(OC(=O)CCCCCCCCC(*)=O)cc2)C(=O)OCCCCCC)cc1 (repeat unit)	22.00 °C
*CCCCCCNC(=O)CCCCCCC(=O)N* (repeat unit)	57.00 °C
*CCCCCCOC(=O)C(CCCCCCCCCCP(=O)(O)O)C(=O)OCCCCCCOc1ccc(-n2on2-c2ccc(O*)cc2)cc1 (repeat unit)	16.00 °C
*Oc1ccc(S(=O)(=O)c2ccc(Oc3ccc(NC(=O)c4ccc(Oc5ccc(C(C)(C)c6cccc(C(C)(C)c7ccc(Oc8ccc(C(=O)Nc9ccc(*)cc9)cc8)cc7)c6)cc5)cc4)cc3)cc2)cc1 (repeat unit)	167.00 °C
*c1cccc(NC(=O)c2cccc(C(=O)Nc3cccc(-n4c(=O)c5cc6c(=O)n(*)c(=O)c6cc5c4=O)c3)c2)c1 (repeat unit)	338.00 °C
*Nc1ccc(*)cc1C (repeat unit)	-71.40 °C
*Nc1ccc(NC(=O)c2ccc(NC(=O)CCCCCCCCCCC(=O)Nc3ccc(C(*)=O)cc3)cc2)cc1C(=O)OCCCCCCCCCCCC (repeat unit)	205.50 °C
*CC(*)(C)C(=O)OCc1cc(Cl)ccc1Cl (repeat unit)	27.80 °C
*c1ccc2c(c1)C(CCCCCCCC)(CCCCCCCC)c1cc(-c3cc(F)c(*)cc3F)ccc1-2 (repeat unit)	34.00 °C
*CC(CS(=O)(=O)CC)O* (repeat unit)	57.00 °C
*CCC(C)O[Si](C)(C)O* (repeat unit)	-88.00 °C
*c1cc(Br)c(-c2c(Br)cc(N3C(=O)c4ccc(-c5ccc6c(c5)C(=O)N(*)C6=O)cc4C3=O)cc2C(=O)OCCCCCCCCCCCC)c(C(=O)OCCCCCCCCCCCC)c1 (repeat unit)	108.00 °C
*CC(O)COc1cccc(O*)c1 (repeat unit)	65.00 °C
*CC(O)COc1ccc(C(C)(C)c2ccc(O*)c(Cl)c2)cc1Cl (repeat unit)	85.00 °C
*/C=C/c1ccc(*)c(-c2c(OCC(CC)CCCC)ccc3ccccc23)c1 (repeat unit)	118.00 °C
*OP(=O)(Oc1ccccc1)Oc1ccc(S(=O)(=O)c2ccc(*)cc2)cc1 (repeat unit)	100.50 °C
*C(=O)Nc1cccc(S(=O)(=O)c2cccc(NC(=O)c3ccc4c(c3)C(=O)N(c3ccc(-c5sc(-c6ccc(N7C(=O)c8ccc(*)cc8C7=O)cc6)c(-c6ccccc6)c5-c5ccccc5)cc3)C4=O)c2)c1 (repeat unit)	320.00 °C
*CC(=O)Nc1ccc(C2(c3ccc(NC(=O)Cn4c(=O)c5cc6c(=O)n(*)c(=O)c6cc5c4=O)cc3)c3ccccc3-c3ccccc32)cc1 (repeat unit)	350.00 °C
